Each structure is given as a SMILES string.

As a reminder, the melting point is the temperature of the solid-liquid transition. Consider `CC(=O)Nc1ccc(Br)c(Cl)c1` [4'-bromo-3'-chloroacetanilide], for which the melting point is 124 °C. As for `Cc1ccc(C#N)cc1` [p-tolunitrile], the melting point was 28 °C.

For `CCCCCCCCCCCCCCC` [pentadecane], the melting point was determined as 10 °C. As to `O=c1ccn([C@@H]2O[C@@H](CO)[C@H](O)[C@H]2O)c(=O)[nH]1` [Uridine], the melting point turned out to be 165 °C. Take `CCCC(=O)O` [butanoic_acid]: the melting point is -5 °C.

As for `CC(C)(C)OC(=O)N1CCNCC1` [1-boc-piperazine], the melting point is 46 °C. For `CCCCN(CCCC)CCCN` [N,N-di-n-butyl-1,3-propylenediamine], the melting point was -70 °C. The result for `N#Cc1ccncc1Cl` [3-chloro-4-cyanopyridine] reads 73 °C; that for `CN(C)c1ccc(N=O)cc1` [N,N-dimethyl-4-nitrosoaniline], 86 °C; that for `CC(=O)Nc1cccc(F)c1` [3'-fluoroacetanilide], 88 °C.

As to `CCN1CCCC1CNC(=O)c1cc(S(N)(=O)=O)ccc1OC` (stereo unspecified) [sulpiride], the melting point was 179 °C.

Turning to `O=C(c1ccc(Cl)cc1)c1nn(-c2ccccc2)/c(=N\N=C\c2ccc(F)cc2)s1`, the melting point came to 151 °C.

With `c1ccc2c(c1)Nc1ccccc1S2` [Phenothazine], the melting point stood at 187 °C. As to `COc1cccc2c1C(=O)C2` [5-methoxybicyclo[4.2.0]octa-1,3,5-trien-7-one], the melting point is 35 °C. Regarding `CC(=O)Nc1ccc(N)cn1` [2-acetamido-5-aminopyridine], the melting point turned out to be 149 °C. With `CC=C(C)C(C)C` [3,4-dimethyl-cis-2-pentene] the figure was -114 °C; with `CC(C)N` [2-aminopropane], -95 °C. With `C1COCO1` [1,3-dioxolane] the figure was -95 °C; with `Cc1ccc(Cl)c(Cl)c1` [3,4-dichlorotoluene], -15 °C. Consider `CC[C@@H]1CCC[C@@H]1CC` [cis-1,2-diethylcyclopentane], for which the melting point is -118 °C. For the compound `O=C(O)C(c1ccccc1)c1ccccc1` [diphenylacetic acid], the melting point stood at 147 °C. With `CCCC[C@H](NC(=O)OCc1ccccc1)C(=O)O` [N-benzyloxycarbonyl-l-norleucine] the figure was 57 °C. On to `COC(=O)c1ccc(OC)c(OC)c1` [methyl_3,4-dimethoxybenzoate], for which the melting point was 60 °C. With `Clc1ccc(Cl)c(I)c1` [1,4-dichloro-2-iodobenzene] the figure was 21 °C; with `ClC1(Cl)[C@]2(Cl)C(/Cl)=C(/Cl)[C@@]1(Cl)[C@@H]3[C@@H](Cl)[C@@H](Cl)C[C@H]23` [a-Chlordane, cis-Chlordane], 106 °C. With `CCCCC(=O)O` [pentanoic acid] the figure was -34 °C; with `CCC(=O)C1(c2cccc(O)c2)CCN(C)CC1` [ketobemidone], 156 °C. `COC(=O)c1ccncc1` [methyl isonicotinate] gave a melting point of 8 °C. With `Oc1ccccc1-c1ccno1` [2-(5-isoxazolyl)phenol] the figure was 185 °C. `Cc1cc(=O)oc2c(O)c(O)ccc12` [7,8-dihydroxy-4-methylcomarin] came in with a melting point of 243 °C.

`O=Cc1cc(F)c(F)c(F)c1` [3,4,5-trifluorobenzaldehyde] showed a melting point of 25 °C. The result for `Cc1cc(B(O)O)ccc1F` [4-fluoro-3-methylbenzeneboronic acid] reads 210 °C; that for `NNC=O` [formic acid hydrazide], 57 °C; that for `CCCCCCCCCCCCCCCCCCCCC` [N-heneicosane], 41 °C. In turn, `Cc1cc(C=O)c(C)n1-c1ccc(F)cc1` [OSM-S-02] yielded a melting point of 118 °C. The result for `C1CCc2nnnn2CC1` [1,5-pentamethylene-1h-tetrazole] reads 60 °C.

(Values after the Bradley open melting point set (2014).)
